Patent publication US4879370A, “Glutathione delivery system” (Cornell Research Foundation, Inc., priority 1985, dated 1989)

Columns and labels:
[1] = test system: mice treated with lethal dose of acetaminophen; assay: Survival of starved mice after lethal dose of acetaminophen (Example 8); format: in vivo; settings: acetaminophen 5 mmol/kg i.p., test compound 10 mmol/kg one hour later, 15 mice
Source text: Starved mice were intraperitoneally treated with 5 mmol/kg (lethal dose) of acetaminophen and, one hour later, with 10 mmol/kg of the test compound.

[2] = test system: GSH level in the liver and in the kidney; assay: GSH level in liver and kidney of starved mice, time course (Example 6); format: in vivo; settings: mice starved 24 hours, 10 mmol/kg i.p., 2 to 3 hours after the administration
Protocol: The test compound was dissolved in sterile water to give a test solution. Groups of 3 mice, each having a body weight of 20 to 25 g, were starved over a period of 24 hours and treated intraperitoneally with a dose of 10 mmol/kg of the test compound. Mice were dissected by every two hours, and the liver and kidney were taken out. GSH analysis was performed on each of the organs.

[3] = test system: glutathione levels of the liver and kidney; assay: Liver and kidney glutathione levels of fasted mice given glutathione ester or glutathione (Example 1, Comparative Example 1); format: in vivo
Protocol: A solution of the glutathione ester was prepared in aseptic water. […] At intervals of 2 hours, as shown in FIGS. 1(a) and (b), the animals were decapitated and the liver and kidney tissues were removed and analyzed for glutathione. Using groups of 3 mice each, values are given as means±S.D.

[4] = test system: glutathione levels of the liver and kidney; assay: Liver and kidney glutathione levels of mice pretreated with buthionine sulfoximine (Example 2); format: in vivo; settings: 2 mmol/kg buthionine sulfoximine
Source text: Controls were again given saline, with tissue levels of GSH being determined at the indicated intervals. Values are means±S.D., using groups of 3 mice each.

[5] = test system: mice given a lethal dose of acetaminophen; settings: acetaminophen 5 mmole per kilogram, ester 10 mmole per kilogram 1 hour later, 15 mice
[6] = mice fasted 24 hours, intraperitoneal 10 millimoles per kilogram, 2 hours after administration, vs 0.15M NaCl controls

SMILES	survival after 7 days [1]	GSH level in the kidney [2]	GSH level in the liver [2]	other results
CCCCCCOC(=O)CNC(=O)[C@H](CS)NC(=O)CC[C@H](N)C(=O)O [GSH mono-n-hexyl ester, n-Hexyl γ-L-glutamyl-L-cysteinylglycinate]	survived and were recovered clearly after 7 days	substantial elevation	substantial elevation	–
CC(C)COC(=O)CNC(=O)[C@H](CS)NC(=O)CC[C@H](N)C(=O)O [GSH monoisobutyl ester, Isobutyl γ-L-glutamyl-L-cysteinylglycinate]	survived and were recovered clearly after 7 days	substantial elevation	substantial elevation	–
CC(C)OC(=O)CNC(=O)[C@H](CS)NC(=O)CC[C@H](N)C(=O)O [GSH monoisopropyl ester, Isopropyl γ-L-glutamyl-L-cysteinylglycinate]	survived and were recovered clearly after 7 days	substantial elevation	substantial elevation	–
N[C@@H](CCC(=O)N[C@@H](CS)C(=O)NCC(=O)O)C(=O)O [GSH, L-γ-glutamyl-L-cysteinyl-glycine, reference compound]	–	slight elevation	No elevation	glutathione level of the kidney [3, 6]: only a slight effect
CCCCS(=N)(=O)CCC(N)C(=O)O (centres unmarked) [buthionine sulfoximine]	–	–	–	glutathione levels of the liver and kidney after the inhibitor [4]: decreased to a very low value
CCOC(=O)CNC(=O)[C@H](CS)NC(=O)CC[C@H](N)C(=O)O [glutathione monoethyl ester, L-γ-Glutamyl-L Cysteinyl Glycyl Ethyl Ester]	–	–	–	effects on liver and kidney glutathione levels compared with glutathione monomethyl ester ([3]; fasted mice, as Example 1): about the same
COC(=O)CNC(=O)[C@H](CS)NC(=O)CC[C@H](N)C(=O)O [glutathione monomethyl ester]	–	–	–	fatalities / survival at 7 days [5]: no fatalities were observed; glutathione level of the kidney [3, 6]: increased substantially; glutathione level of the liver [3, 6]: increased substantially
